From paper PMC9330179 (ACS Omega, 2022)

Experiments:
Format in all cases: biochemical
[1] = target: cathepsin S (Homo sapiens, UniProt P25774); assay: protease activity at a single dose; details: read-out: GER-24 (50 μM) % control activity (100%, no inhibitor)
[2] = target: cathepsin H (Homo sapiens, UniProt P09668); assay: protease activity at a single dose; details: read-out: GER-24 (50 μM) % control activity (100%, no inhibitor)
[3] = target: cathepsin V (Homo sapiens, UniProt O60911); assay: protease activity at a single dose; details: read-out: GER-24 (50 μM) % control activity (100%, no inhibitor)
Sequence of cathepsin V (O60911 114-334): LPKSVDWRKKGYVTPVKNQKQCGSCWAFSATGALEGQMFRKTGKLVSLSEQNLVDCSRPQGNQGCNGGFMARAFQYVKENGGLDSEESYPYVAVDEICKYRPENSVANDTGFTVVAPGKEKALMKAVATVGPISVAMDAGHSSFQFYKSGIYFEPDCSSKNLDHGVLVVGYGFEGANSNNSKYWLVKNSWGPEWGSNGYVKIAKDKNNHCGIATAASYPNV

[4] = target: T1, cathepsin B (Homo sapiens, UniProt P07858); assay: fluorogenic Z-Glu-Lys-AMC assay at pH […], IC50
[5] = target: T2, cathepsin K (Homo sapiens, UniProt P43235); assay: protease activity at a single dose; details: read-out: GER-24 (50 μM) % control activity (100%, no inhibitor)
T2 sequence (P43235 115-329): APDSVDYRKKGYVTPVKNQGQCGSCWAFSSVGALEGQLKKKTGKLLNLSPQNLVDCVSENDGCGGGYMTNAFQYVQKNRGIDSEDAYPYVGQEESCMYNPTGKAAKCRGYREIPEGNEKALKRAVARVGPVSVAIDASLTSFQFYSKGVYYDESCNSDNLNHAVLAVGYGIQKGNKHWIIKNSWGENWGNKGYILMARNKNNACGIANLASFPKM

[6] = target: T1, cathepsin B

Sequence of cathepsin S (P25774 115-331): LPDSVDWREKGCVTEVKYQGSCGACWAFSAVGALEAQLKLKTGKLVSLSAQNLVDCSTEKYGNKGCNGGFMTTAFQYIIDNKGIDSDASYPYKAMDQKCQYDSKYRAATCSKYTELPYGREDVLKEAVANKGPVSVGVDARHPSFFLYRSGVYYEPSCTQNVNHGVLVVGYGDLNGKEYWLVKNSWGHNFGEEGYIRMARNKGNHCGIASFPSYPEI
Sequence of cathepsin H (P09668 116-335, other chains not shown): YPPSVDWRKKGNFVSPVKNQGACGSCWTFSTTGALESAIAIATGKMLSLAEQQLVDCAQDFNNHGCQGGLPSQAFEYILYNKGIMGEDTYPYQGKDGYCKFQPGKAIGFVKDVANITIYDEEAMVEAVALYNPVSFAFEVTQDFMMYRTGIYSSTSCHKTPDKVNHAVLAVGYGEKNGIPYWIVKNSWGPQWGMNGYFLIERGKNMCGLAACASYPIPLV

SMILES | remaining activity at 50 µM [1] [%] | remaining activity at 50 µM [2] [%] | remaining activity at 50 µM [3] [%] | IC50 [4] [µM] | remaining activity at 50 µM [5] [%] | Ki [6] [µM]
CCCCC/C=C\C/C=C\C=C/C#CCCCC(=O)O [GER-24, (7Z,9Z,12Z)-octadeca-7,9,12-trien-5-ynoic acid] | 0 | 21 | 17 | 16 | 7 | –
O=S(=O)(O)Oc1ccc(Oc2cc(Br)c(Oc3ccc(OS(=O)(=O)O)c(Oc4ccc(Br)cc4Br)c3Br)c(Oc3ccc(Br)cc3Br)c2)cc1Br [GER-12, Crossbyanol B] | – | – | – | – | – | 1.4
